Assay results reported in ChEMBL document CHEMBL1151665, “Plant anticancer agents, XLI. Cardiac glycosides from Streblus asper” (1985).
In brackets after ≈: the same amount, converted by molar mass.

Test system: KB
Assay: Cytotoxicity against human KB cells
Settings: read-out: ED50

Row | Structure (SMILES) | EC50 [µg/mL]
1 | CO[C@H]1[C@H](O[C@H]2CC[C@]3(C=O)[C@H]4CC[C@]5(C)[C@@H](C6=CC(=O)OC6)CC[C@]5(O)[C@@H]4CC[C@]3(O)C2)O[C@H](C)[C@@H](O)[C@@H]1OC [MANSONIN] | 0.042 (≈ 0.0726 µM)
2 | CO[C@H]1[C@H](O[C@H]2CC[C@]3(C=O)[C@H]4CC[C@]5(C)[C@@H](C6=CC(=O)OC6)CC[C@]5(O)[C@@H]4CC[C@]3(O)C2)O[C@H](C)[C@H](O)[C@@H]1OC [STREBLOSIDE] | 0.035 (≈ 0.0605 µM)
